Key:
[1] = Cytotoxicity assay (Cell-Titer GLO, cellular ATP levels) on THP-1 cells; assay type: cell-based, human; details: human; THP-1 cells, 72 h, ATP levels
Protocol: (§1) Briefly, 7.5 × 10^3 Huh7 cells/well or 2 × 10^4 THP-1 cells/well were plated in black 96-well plates and incubated at 37 °C for 24 h. […] Each dilution was added to the cell plates to obtain final concentrations of 6.25 µM to 200 µM for alkaloids and DMSO, and 0.39 µM to 50 µM for lycorine. […] The plates were then incubated at 37 °C and 5% CO2 for 72 h. Cell-Titer GLO reagent was added to the plates previously equilibrated to room temperature. The plates were then mixed on an orbital shaker for 2 min and incubated for 10 min at room temperature. The luminescence signal was measured with a microplate spectrophotometer (Synergy H1, Biotek, Dorval, QC, Canada). Viability percentages were obtained by calculating the ratio of the signal corresponding to each alkaloid concentration to the signal of the equimolar DMSO control. All experiments were performed at least twice. Median cytotoxic concentrations (CC50) were calculated using QuestGraph IC50 calculator software (MLA Quest Graph™ IC50 Calculator, AAT Bioquest, Inc., Sunnyvale, CA, USA).

[2] = Cytotoxicity assay (Cell-Titer GLO, cellular ATP levels) on Huh7 cells; assay type: cell-based, human; details: human; Huh7 cells, 72 h, ATP levels
Protocol: as §1

[3] = system: Huh7 cells; assay: as above; assay type: cell-based, human; details: for cell death, Huh7 cells: 200 µM; for cytotoxicity to Huh7 cells: tested concentrations (lycorine: below 50 µM)
Protocol: as §1

[4] = system: HIV-1GFP; assay: microbe, parasite or virus in culture; assay type: cell-based, human immunodeficiency virus (HIV)-1; details: for EC50: Human immunodeficiency virus 1, THP-1, 72 h, read-out: EC50 HIV-1; for inhibition at 200 µM: Human immunodeficiency virus 1, THP-1, read-out: inhibition of HIV-1 infection
Protocol: (§2) The plasmid used to obtain the DENVGFP vector (pFK-DVs-G2A) was provided by Ralf Bartenschlager (Heidelberg University, Heidelberg, Germany) and Laurent Chatel-Chaix (Institut National de la Recherche Scientifique, Laval, QC, Canada). The 2 plasmids used to obtain the HIV-1GFP vector were PMD2.G and pNL4-3-GFPΔEnvΔNef. For DENVGFP, viral titer was measured using a plaque assay in Vero cells, as described in [53]. For HIV-1GFP, the viral titer was obtained by measuring the infectivity of serially diluted vectors in CRFK cells, as described in [54].
(§3) Briefly, 7.5 × 10^3 Huh7 cells/well or 2 × 10^4 THP-1 cells/well were plated in 96-well plates at 37 °C for 24 h. […] Each dilution was added to the cell plates to obtain final concentrations of 1.56 µM to 200 µM for alkaloids and matched concentrations of DMSO, and 0.05 µM to 6.4 µM for lycorine or 0.078 µM to 10 µM for raltegravir. Lycorine and raltegravir were used as DENV and HIV-1 inhibitor controls, respectively. DENVGFP and HIV-1GFP were then added at multiplicities of infection (MOIs) of 0.025 and 0.1, respectively. Plates were placed in an incubator at 37 °C and 5% CO2 for 72 h. Afterward, the cells were fixed in 3.7% formaldehyde and the percentage of infection was measured using flow cytometry with an FC500 MPL cytometer (Beckman Coulter, Inc., Brea, CA, USA). Data analysis was performed using Flowjo software (BD, FlowJo LLC, Ashland, OR, USA). All experiments were performed at least twice. EC50 values were calculated using QuestGraph IC50 calculator software (MLA Quest Graph™ IC50 Calculator. AAT Bioquest, Inc. https://www.aatbio.com/tools/ic50-calculator (accessed on 1 July 2022)).

[5] = system: DENVGFP; assay: Antiviral assay, propagative DENVGFP vector in Huh7 cells, flow cytometry; assay type: cell-based, dengue virus (serotype 2); details: Dengue virus, Huh-7, 72 h, read-out: EC50 DENV
Protocol: as §2, §3

[6] = biological target: T1, AChE (Electrophorus electricus, UniProt O42275); assay: biochemical; assay type: biochemical, electric eel; details: substrate ATCh; nid = no inhibition detected at 1 mM
T1 construct: purchased Abcam ab138871
Protocol: (§4) Pharmacological properties specific to AD were tested first on AChEs (electric eel) according to the kit (ab138871, Abcam) that provides a colorimetric measure of enzyme activity and inhibition. Briefly, the reaction was performed in a final volume of 100 μL in 96-well microplates. […] For this, DMSO-dissolved test compounds were added to a final concentration of 1 mM (1% DMSO) in duplicates. Next, a 5 μL reaction mixture containing equal amounts of acetylthiocholine (20X) and DTNB (20X) was added to each well. Ultimately, the enzyme solution was added to a final concentration of 0.25 U/mL and the absorbance was measured at 412 nm in kinetic mode for 10 min using a microplate reader (Synergy H1, Biotek, Dorval, QC, Canada). The same procedure was utilized for the BuChE (equine, Sigma-Aldrich) activity test, except that the enzyme concentration was 2 U/mL per reaction. DTNB (Bis(3-carboxy-4-nitrophenyl) disulfide, Ellman’s Reagent), acetylthiocholine iodide, and butyrylthiocholine iodide were purchased from Sigma-Aldrich (Oakville, ON, Canada). […] Experiments were performed at least twice. Inhibition was calculated as follows:I = 100 × (1 − Δi/Δe) where Δi is the difference in the absorbance between two time points in the presence of the inhibitor, and Δe is the difference in the absorbance using two time points in presence of DMSO or an appropriate solvent.

[7] = biological target: T2, BuChE (Equus caballus, UniProt P81908); assay: biochemical; set-up: species or system equine; details: for IC50 / IC50 BuChE: nid = no inhibition detected at 1 mM
T2 construct: purchased Sigma-Aldrich
Protocol: as §4

[8] = system: THP-1 cells; assay: Cytotoxicity assay (Cell-Titer GLO, cellular ATP levels) on THP-1 cells; assay type: cell-based, human
Protocol: as §1

[9] = biological target: T3, POP (Homo sapiens, UniProt P48147); assay: Prolyloligopeptidase (POP) inhibition assay, fluorogenic kit; assay type: biochemical; details: IC50 POP, substrate DPP (Ala-Pro-AMC dipeptide); nid = no inhibition detected at 1 mM
T3 construct: purchased BPS Bioscience Inc
T3 sequence (P48147 1-710): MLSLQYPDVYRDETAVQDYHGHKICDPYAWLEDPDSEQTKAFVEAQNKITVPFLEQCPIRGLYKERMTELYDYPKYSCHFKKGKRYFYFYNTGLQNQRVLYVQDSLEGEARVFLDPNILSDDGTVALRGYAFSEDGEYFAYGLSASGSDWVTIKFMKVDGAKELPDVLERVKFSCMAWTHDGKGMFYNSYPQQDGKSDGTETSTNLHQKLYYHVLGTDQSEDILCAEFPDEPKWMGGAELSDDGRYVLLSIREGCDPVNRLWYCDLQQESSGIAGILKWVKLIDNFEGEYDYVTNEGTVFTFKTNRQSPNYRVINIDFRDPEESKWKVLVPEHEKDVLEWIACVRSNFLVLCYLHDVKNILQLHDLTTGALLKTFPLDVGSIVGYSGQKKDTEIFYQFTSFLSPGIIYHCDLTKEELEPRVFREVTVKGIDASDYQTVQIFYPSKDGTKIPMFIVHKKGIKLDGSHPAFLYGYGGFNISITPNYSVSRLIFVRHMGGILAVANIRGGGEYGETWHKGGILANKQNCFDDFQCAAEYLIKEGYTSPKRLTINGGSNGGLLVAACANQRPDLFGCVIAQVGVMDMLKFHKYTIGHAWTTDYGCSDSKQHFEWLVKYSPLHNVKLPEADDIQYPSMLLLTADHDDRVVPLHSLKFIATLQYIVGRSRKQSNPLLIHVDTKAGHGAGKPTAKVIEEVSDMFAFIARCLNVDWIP
Protocol: POP enzyme activity was measured using the Fluorogenic POP Assay Kit (BPS Bioscience Inc., San Diego, CA, USA). The reaction was carried out in a final volume of 50 μL in a low-binding NUNC microtiter plate. All compounds were tested at a final concentration of 250 μM in duplicate. A DPP substrate was added to a final concentration of 2.5 μM and the POP enzyme solution was subsequently added to a final concentration of 1 ng/μL. Optical densities at 440 nm were recorded using a microplate reader (Synergy H1, Biotek, QC, Canada).

[10] = tested concentrations (lycorine: below 50 µM)
[11] = 200 µM, killing a majority of the cells

T1 sequence (O42275 24-633): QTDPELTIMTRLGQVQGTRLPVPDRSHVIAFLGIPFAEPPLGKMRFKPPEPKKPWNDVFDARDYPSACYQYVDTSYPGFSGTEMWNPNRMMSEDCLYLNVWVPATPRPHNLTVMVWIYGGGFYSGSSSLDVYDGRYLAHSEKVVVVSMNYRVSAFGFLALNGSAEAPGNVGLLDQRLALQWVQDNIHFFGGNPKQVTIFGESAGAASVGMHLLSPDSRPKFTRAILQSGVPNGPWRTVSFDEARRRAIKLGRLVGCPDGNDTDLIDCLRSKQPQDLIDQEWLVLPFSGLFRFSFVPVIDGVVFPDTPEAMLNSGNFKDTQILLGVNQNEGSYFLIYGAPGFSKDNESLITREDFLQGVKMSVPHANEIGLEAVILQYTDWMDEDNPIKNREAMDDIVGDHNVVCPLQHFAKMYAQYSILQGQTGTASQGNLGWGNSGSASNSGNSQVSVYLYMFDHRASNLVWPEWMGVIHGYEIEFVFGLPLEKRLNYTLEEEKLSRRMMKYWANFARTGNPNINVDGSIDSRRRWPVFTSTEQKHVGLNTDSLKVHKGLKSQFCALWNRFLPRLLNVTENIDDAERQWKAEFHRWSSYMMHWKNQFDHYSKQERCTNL
T2 sequence (P81908 whole entry): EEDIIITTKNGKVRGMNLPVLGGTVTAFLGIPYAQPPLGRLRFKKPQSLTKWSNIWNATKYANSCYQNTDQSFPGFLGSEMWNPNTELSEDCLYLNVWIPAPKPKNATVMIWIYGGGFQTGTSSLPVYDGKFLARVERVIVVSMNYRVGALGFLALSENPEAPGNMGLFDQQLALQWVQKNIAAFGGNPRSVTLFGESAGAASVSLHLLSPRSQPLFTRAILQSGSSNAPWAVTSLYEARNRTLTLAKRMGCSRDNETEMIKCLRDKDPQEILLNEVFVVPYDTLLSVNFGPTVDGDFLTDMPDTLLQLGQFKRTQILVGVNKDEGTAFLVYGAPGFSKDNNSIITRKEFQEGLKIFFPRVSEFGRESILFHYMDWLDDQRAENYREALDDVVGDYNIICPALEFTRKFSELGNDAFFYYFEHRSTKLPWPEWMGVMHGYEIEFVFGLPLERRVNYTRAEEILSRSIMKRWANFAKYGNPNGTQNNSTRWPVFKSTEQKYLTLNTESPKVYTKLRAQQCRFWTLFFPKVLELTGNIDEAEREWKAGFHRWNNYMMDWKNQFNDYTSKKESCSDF

Compound | CC50 at 72 h [1] [µM] | CC50 at 72 h [2] [µM] | cell death, Huh7 cells [3] [%] | EC50 [4] [µM] | EC50 [5] [µM] | IC50 [6] [µM] | loss of BuChE inhibition compared with norbelladine [7] [fold] | IC50 ([7]; substrate ATCh) [µM] | IC50 ([7]; substrate BuTCh) [µM] | cytotoxicity to THP-1 cells [8, 10] | cytotoxicity to Huh7 cells [3] | IC50 AChE [6] | IC50 BuChE ([7]; substrate ATCh) | IC50 BuChE ([7]; substrate BuTCh) | inhibition at 200 µM [4] [%] | IC50 [9] [µM] | inhibition at 2000 µM ([7]; read-out: BuChE inhibition (positive control)) [%] | cytotoxicity to THP-1 cells [8, 11] | cytotoxicity to THP-1 cells ([8]; 100 µM, killing a majority of the cells)
COc1ccc(CNCCc2ccc(O)cc2)cc1OC [3′,4′-O-dimethylnorbelladine] | > 200 | 131 | 50 | 98.3 | 27.5 | 320 | 3 | 87.8 | 87.9 |  |  |  |  |  |  |  |  |  | 
O[C@H]1[C@H]2c3cc4c(cc3CN3CCC(=C[C@@H]1O)[C@H]23)OCO4 [Lycorine, reference compound] | 10.7 | 17.4 |  |  | 0.09 |  |  |  |  | cytotoxic | cytotoxic |  |  |  |  |  |  |  | 
COc1ccc(/C=N/CCc2ccc(O)cc2)cc1O [4′-O-methylnorcraugsodine] | > 200 | > 200 |  | > 200 | > 200 |  |  |  |  |  |  | nid | nid | nid |  |  |  |  | 
COc1cc(/C=N/CCc2ccc(O)cc2)ccc1O [3′-O-methylnorcraugsodine] | > 200 | > 200 |  | 107 | 176 |  |  |  |  |  | weakly cytotoxic | nid | nid | nid | 94 to 99 | 1150 |  |  | 
COc1ccc(CNCCc2ccc(O)cc2)cc1O [4′-O-methylnorbelladine] | > 200 | > 200 |  | 108 | 40.5 |  |  | 42.9 | 91.6 |  |  | nid |  |  |  |  |  |  | 
COc1ccc(/C=N/CCc2ccc(O)cc2)cc1OC [3′,4′-O-dimethylnorcraugsodine] | > 200 | > 200 |  | > 200 | > 200 |  |  |  |  |  |  | nid | nid | nid |  |  |  |  | 
CCN(C)C(=O)Oc1cccc([C@H](C)N(C)C)c1 [rivastigamine, Rivastigmine, reference compound] |  |  |  |  |  |  |  |  |  |  |  |  |  |  |  |  | 100 |  | 
Oc1ccc(CCNCc2ccc(O)c(O)c2)cc1 [Norbelladine] | 82.2 | 72.6 | 50 | 50.5 | 50.4 |  |  | 33.3 | 26.1 |  |  | nid |  |  | 94 to 99 |  |  | highly cytotoxic | 
COc1cc(CNCCc2ccc(O)cc2)ccc1O [3′-O-methylnorbelladine] | 99 | > 200 |  | 135 | 44.9 |  |  | 40.2 | 58.9 |  |  | nid |  |  |  | 1230 |  | highly cytotoxic | 
NCCc1ccc(O)cc1 [Tyramine] | > 200 | > 200 |  | > 200 | > 200 |  |  |  |  | not cytotoxic | not cytotoxic | nid | nid | nid |  |  |  |  | 
O=Cc1ccc(O)c(O)c1 [3,4-DHBA, 3,4-dihydroxybenzaldehyde] | 31.7 | 173 | 50 | 51.5 | 24.1 |  |  |  |  |  |  | nid | nid | nid | 94 to 99 |  |  |  | highly cytotoxic
Cc1nnc(C(=O)NC(C)(C)c2nc(C(=O)NCc3ccc(F)cc3)c(O)c(=O)n2C)o1 [Raltegravir, reference compound] | > 10 |  |  | 0.098 |  |  |  |  |  |  |  |  |  |  |  |  |  |  | 

Reference: article PMC9457815 (Molecules, 2022)
